# Measured values as given in patent publication US11098058B2, “Bicyclic ketone compounds and methods of use thereof” (Genentech, Inc., priority 2017, dated 2021).
# Target: human RIP1 kinase domain (2-375) (Homo sapiens (Human), UniProt Q13546)
# Assay: biochemical
# Settings: RIP1 kinase inhibition, tight-binding apparent Ki, 50 nM enzyme, 50 μM ATP, 2 hours incubation
# Procedure: RIP1 Kinase Inhibition Assays (Biochemical Assay)
# The ability of the receptor interacting protein kinase (RIPK1) to catalyze the hydrolysis of adenosine-5′-triphosphate (ATP) is monitored using the Transcreener ADP (adenosine-5′-diphosphate) assay (BellBrook Labs). Purified human RIP1 kinase domain (2-375) (50 nM) derived from a baculovirus-infected insect cell expression system is incubated with test compounds for 2 hours in 50 mM Hepes buffer (pH 7.5) containing 30 mM MgCl2, 1 mM dithiothreitol, 50 μM ATP, 0.002% Brij-35, and 0.5% dimethyl sulfoxide (DMSO). […] The tracer bound to the antibody is displaced by the ADP generated during the RIP1K reaction, which causes a decrease in fluorescence polarization that is measured by laser excitation at 633 nm with a FP microplate reader M1000. Fractional activity was plotted against test article concentration. Using Genedata Screener software (Genedata; Basel, Switzerland), the data were fit to the tight-binding apparent inhibition constant (Ki^app) Morrison equation [Williams, J. W. and Morrison, J. F. (1979) The kinetics of reversible tight-binding inhibition. […] The following equation was used to calculate fractional activity and Ki^app:
# [formula] where [E]T and [I]T are the total concentrations of active enzyme and test article, respectively.
# human RIP1 kinase domain (2-375), sequence (Q13546 2-375): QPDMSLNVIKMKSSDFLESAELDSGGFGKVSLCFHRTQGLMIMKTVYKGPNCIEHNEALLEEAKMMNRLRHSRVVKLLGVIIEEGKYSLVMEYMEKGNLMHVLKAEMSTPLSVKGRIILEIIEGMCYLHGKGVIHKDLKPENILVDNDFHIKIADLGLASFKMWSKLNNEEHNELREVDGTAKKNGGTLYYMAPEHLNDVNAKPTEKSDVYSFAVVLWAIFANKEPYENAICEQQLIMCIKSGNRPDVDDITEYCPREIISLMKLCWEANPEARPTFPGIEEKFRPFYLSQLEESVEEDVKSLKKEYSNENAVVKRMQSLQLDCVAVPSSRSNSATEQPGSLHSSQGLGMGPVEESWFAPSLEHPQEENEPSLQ
row,SMILES,Ki [nM]
1,"N#C[C@@H]1C[C@H]1C(=O)c1nc2n(n1)[C@H](c1ccccc1)C[C@@H]2F (mixture of isomers) [Example 105, rac-(1R,2R)-2-[(5S,7S)-7-fluoro-5-phenyl-6,7-dihydro-5H-pyrrolo[1,2-b][1,2,4]triazole-2-carbonyl]cyclopropanecarbonitrile]",13
2,"CCC1(C(=O)c2nc3n(n2)[C@H](c2ccccc2)C[C@@H]3F)CC1 (racemic) [Example 125, (1-ethylcyclopropyl)-[rac-(5S,7S)-7-fluoro-5-phenyl-6,7-dihydro-5H-pyrrolo[1,2-b][1,2,4]triazol-2-yl]methanone]",4
3,"O=C(c1cc2n(n1)[C@H](c1ccccc1)C[C@@H]2F)C1CC1 (racemic) [Example 78, cyclopropyl-[rac-(4S,6S)-4-fluoro-6-phenyl-5,6-dihydro-4H-pyrrolo[1,2-b]pyrazol-2-yl]methanone]",20
4,"N#CC1CC1C(=O)c1nc2n(n1)[C@H](c1ccccc1)C[C@@H]2F (mixture of isomers) [Example 86, 2-[rac-(5S,7S)-7-fluoro-5-phenyl-6,7-dihydro-5H-pyrrolo[1,2-b][1,2,4]triazole-2-carbonyl]-cyclopropanecarbonitrile]",160
5,"O=C(c1nc2n(n1)[C@H](c1ccccc1)C[C@@H]2F)[C@H]1CCCN1 (racemic) [Example 128, [rac-(5S,7S)-7-fluoro-5-phenyl-6,7-dihydro-5H-pyrrolo[1,2-b][1,2,4]triazol-2-yl]-[rac-(2R)-pyrrolidin-2-yl]methanone]",650
6,"O=C(c1nc2n(n1)[C@H](c1ccccc1F)CC2)C1CC1 (racemic) [Example 63, cyclopropyl-[rac-(5S)-5-(2-fluorophenyl)-6,7-dihydro-5H-pyrrolo[1,2-b][1,2,4]triazol-2-yl]methanone]",10
7,"[2H][C@H]1C[C@@H](c2ccccc2)n2nc(C(=O)C3CC3)nc21 (single isomer, unassigned) [Example 111]",8.2

# The remaining lines, values ahead:
row,Ki [nM],SMILES
1,4,"O=C(c1nc2n(n1)[C@H](c1ccccc1)C[C@@H]2F)[C@@H]1CC12CC2 (racemic) [Example 163, [rac-(5S,7S)-7-fluoro-5-phenyl-6,7-dihydro-5H-pyrrolo[1,2-b][1,2,4]triazol-2-yl]-[rac-(2R)-spiro[2.2]pentan-2-yl]methanone]"
2,140,"O=C(c1nc2n(n1)[C@H](c1ccccc1)C[C@@H]2F)[C@@H]1C[C@@H]2CC[C@H]1O2 (racemic) [Example 139, [rac-(5S,7S)-7-fluoro-5-phenyl-6,7-dihydro-5H-pyrrolo[1,2-b][1,2,4]triazol-2-yl]-[rac-(1R,2R,4S)-7-oxabicyclo[2.2.1]heptan-2-yl]methanone]"
3,230,"O=C(c1nc2n(n1)[C@H](c1ccccc1)C[C@@H]2F)[C@]12COC[C@H]1C2 (racemic) [Example 144, [rac-(5S,7S)-7-fluoro-5-phenyl-6,7-dihydro-5H-pyrrolo[1,2-b][1,2,4]triazol-2-yl]-[rac-(1S,5S)-3-oxabicyclo[3.1.0]hexan-1-yl]methanone]"
4,16,"O=C(c1nc2n(n1)[C@H](c1ccccc1)C[C@@H]2F)C1CCCOC1 (mixture of isomers) [Example 127, [rac-(5S,7S)-7-fluoro-5-phenyl-6,7-dihydro-5H-pyrrolo[1,2-b][1,2,4]triazol-2-yl]-tetrahydropyran-3-yl-methanone]"
5,< 5,"O=C(c1nc2n(n1)[C@H](c1ccccc1)C[C@@H]2F)[C@@H]1CCOC1 (racemic) [Example 132, [rac-(5S,7S)-7-fluoro-5-phenyl-6,7-dihydro-5H-pyrrolo[1,2-b][1,2,4]triazol-2-yl]-[rac-(3R)-tetrahydrofuran-3-yl]methanone]"
6,57,"O=C(c1nc2n(n1)[C@H](c1ccccc1)C[C@@H]2F)C1CCOCC1 (racemic) [Example 126, [rac-(5S,7S)-7-fluoro-5-phenyl-6,7-dihydro-5H-pyrrolo[1,2-b][1,2,4]triazol-2-yl]-tetrahydropyran-4-yl-methanone]"
7,< 5,"COCC(C)(C)C(=O)c1nc2n(n1)[C@H](c1ccccc1)C[C@@H]2F (racemic) [Example 133, 3-methoxy-2,2-dimethyl-1-[rac-(5S,7S)-7-fluoro-5-phenyl-6,7-dihydro-5H-pyrrolo[1,2-b][1,2,4]triazol-2-yl]propan-1-one]"
8,32,"O=C(CC1CCOCC1)c1nc2n(n1)[C@H](c1ccccc1)C[C@@H]2F (racemic) [Example 136, 1-[rac-(5S,7S)-7-fluoro-5-phenyl-6,7-dihydro-5H-pyrrolo[1,2-b][1,2,4]triazol-2-yl]-2-tetrahydropyran-4-yl-ethanone]"
9,16,"O=C(c1nc2n(n1)[C@H](c1ccccc1)C[C@@H]2F)[C@H]1CC12CC2 (racemic) [Example 162, [rac-(5S,7S)-7-fluoro-5-phenyl-6,7-dihydro-5H-pyrrolo[1,2-b][1,2,4]triazol-2-yl]-[rac-(2S)-spiro[2.2]pentan-2-yl]methanone]"
10,220,"O=C(c1nc2n(n1)[C@H](c1ccccc1)C[C@@H]2F)[C@H](O)C(F)(F)F (racemic) [Example 134, rac-(2S)-3,3,3-trifluoro-2-hydroxy-1-[rac-(5S,7S)-7-fluoro-5-phenyl-6,7-dihydro-5H-pyrrolo[1,2-b][1,2,4]triazol-2-yl]propan-1-one]"

# Same assay, conditions: tight-binding apparent inhibition constant (Ki app, Morrison equation), 50 nM enzyme, 50 μM ATP, 2 hours incubation
row,Ki [nM],SMILES
1,235,"O=C(c1nc2n(n1)[C@@H](c1ccccc1)C[C@@H]2F)C1CC1 (racemic) [Example 18, cyclopropyl-[rac-(5R,7S)-7-fluoro-5-phenyl-6,7-dihydro-5H-pyrrolo[1,2-b][1,2,4]triazol-2-yl]methanone]"
2,> 10000,"Cn1cc(C(=O)c2nc3n(n2)[C@H](c2ccccc2)C[C@@H]3F)cn1 (stereo in doubt) [Example 40, (1-methylpyrazol-4-yl)-[rac-(5S,7S)-7-fluoro-5-phenyl-6,7-dihydro-5H-pyrrolo[1,2-b][1,2,4]triazol-2-yl]methanone]"
3,2830,"CC(C)(C)C(=O)c1nc2n(n1)[C@H](c1ccccc1)C[C@@H]2F (stereo in doubt) [Example 37, 2,2-dimethyl-1-[rac-(5S,7S)-7-fluoro-5-phenyl-6,7-dihydro-5H-pyrrolo[1,2-b][1,2,4]triazol-2-yl]propan-1-one]"
4,22.4,"O=C(c1nc2n(n1)[C@H](c1ccccc1)C[C@@H]2F)C1(F)CC1 (racemic) [Example 53, (1-fluorocyclopropyl)-(rac-(5S,7S)-7-fluoro-5-phenyl-6,7-dihydro-5H-pyrrolo[1,2-b][1,2,4]triazol-2-yl)methanone]"
5,> 9400,"O=C(c1nc2n(n1)[C@@H](c1ccccc1)C[C@H]2F)C1CC1 (stereo in doubt) [Example 35, cyclopropyl-[rac-(5R,7R)-7-fluoro-5-phenyl-6,7-dihydro-5H-pyrrolo[1,2-b][1,2,4]triazol-2-yl]methanone]"
6,38,"CC1(C(=O)c2nc3n(n2)[C@H](c2ccccc2)C[C@@H]3F)CC1 (racemic) [Example 26, (rac-(5S,7S)-7-fluoro-5-phenyl-6,7-dihydro-5H-pyrrolo[1,2-b][1,2,4]triazol-2-yl)-(1-methylcyclopropyl)methanone]"
7,33.1,"CC(C)(C#N)C(=O)c1nc2n(n1)[C@H](c1ccccc1)C[C@@H]2F (racemic) [Example 22, 3-(rac-(5S,7S)-7-fluoro-5-phenyl-6,7-dihydro-5H-pyrrolo[1,2-b][1,2,4]triazol-2-yl)-2,2-dimethyl-3-oxo-propanenitrile]"
8,12,"O=C(c1nc2n(n1)[C@@H](c1ccccc1)C[C@H]2F)C1CCC1 (racemic) [Example 43, cyclobutyl-[rac-(5R,7R)-7-fluoro-5-phenyl-6,7-dihydro-5H-pyrrolo[1,2-b][1,2,4]triazol-2-yl]methanone]"
9,18.8,"O=C(c1nc2n(n1)[C@H](c1ccccc1)C[C@@H]2F)C1CCCC1 (racemic) [Example 36, cyclopentyl--(rac-(5S,7S)-7-fluoro-5-phenyl-6,7-dihydro-5H-pyrrolo[1,2-b][1,2,4]triazol-2-yl)methanone]"
10,7.39,"CCC(=O)c1nc2n(n1)[C@H](c1ccccc1F)CC2 (racemic) [Example 31, 1-[rac-(5S)-5-(2-fluorophenyl)-6,7-dihydro-5H-pyrrolo[1,2-b][1,2,4]triazol-2-yl]propan-1-one]"
11,4.17,"CC(C)(C)C(=O)c1nc2n(n1)[C@@H](c1ccccc1)C[C@H]2F (stereo in doubt) [Example 38, 2,2-dimethyl-1-[rac-(5R,7R)-7-fluoro-5-phenyl-6,7-dihydro-5H-pyrrolo[1,2-b][1,2,4]triazol-2-yl]propan-1-one]"
12,3.56,"CCC(=O)c1nc2n(n1)[C@H](c1ccccc1)C[C@@H]2F (racemic) [Example 47, 1-[rac-(5S,7S)-7-fluoro-5-phenyl-6,7-dihydro-5H-pyrrolo[1,2-b][1,2,4]triazol-2-yl]propan-1-one]"
13,2360,"O=C(c1ccccn1)c1nc2n(n1)[C@H](c1ccccc1)C[C@@H]2F (racemic) [Example 33, (rac-(5S,7S)-7-fluoro-5-phenyl-6,7-dihydro-5H-pyrrolo[1,2-b][1,2,4]triazol-2-yl)-(2-pyridyl)methanone]"
14,416,"Cn1cc(C(=O)c2nc3n(n2)[C@@H](c2ccccc2)C[C@H]3F)cn1 (stereo in doubt) [Example 48, (1-methylpyrazol-4-yl)-[rac-(5R,7R)-7-fluoro-5-phenyl-6,7-dihydro-5H-pyrrolo[1,2-b][1,2,4]triazol-2-yl]methanone]"
15,12.2,"O=C(Cc1ccccc1)c1nc2n(n1)[C@H](c1ccccc1)C[C@@H]2F (racemic) [Example 7, 2-phenyl-1-[rac-(5S,7S)-7-fluoro-5-phenyl-6,7-dihydro-5H-pyrrolo[1,2-b][1,2,4]triazol-2-yl]ethanone]"
16,134,"O=C(CC(F)(F)F)c1nc2n(n1)[C@@H](c1ccccc1)C[C@H]2F (racemic) [Example 29, 3,3,3-trifluoro-1-[rac-(5R,7R)-7-fluoro-5-phenyl-6,7-dihydro-5H-pyrrolo[1,2-b][1,2,4]triazol-2-yl]propan-1-one]"
17,42.3,"O=C(c1nc2n(n1)[C@H](c1ccccc1)C[C@@H]2F)C1COC1 (racemic) [Example 57, oxetan-3-yl-[rac-(5S,7S)-7-fluoro-5-phenyl-6,7-dihydro-5H-pyrrolo[1,2-b][1,2,4]triazol-2-yl]methanone]"
